Where a name gives a salt, the structure may show the parent alone. Read-outs that look alike come from different tables or passages of the source.
Tests used:
Type in all cases: cell-based
Diff.CD34+ = assay: Inhibition of cell growth (GI50) in Diff.CD34+ cells, 7-d
HIV-1 virus strain JR-FL = assay: Inhibition of infection of primary HIV-1 isolate JR-FL in PBMCs (p24 antigen ELISA); settings: Human immunodeficiency virus 1, 192 h; PBMC infected with virus JR-FL, p24 production at day 8
Excerpt: (§1) Monocyte/macrophages represent a major reservoir of HIV-1 in the infected human host. See L. Epstein et al., AIDS Res. 14, 447 (1984). However, these cells tend to be resistant to dideoxynucleoside prodrugs due to low levels of kinases needed to activate the prodrugs. See C. Pemo et al., J. Exp. Med. 168, 1111 (1984). To test the compounds described herein in these cells, PBMC cells infected for 7 days with two different virus strains (20678 and JR-FL) and under PHA stimulation for 4 days were treated with AZT, FOZ ISO 850, FOZ ISO 851, and FOZ MIX Na.
(§2) PBMC's were prepared as follows: 50 ml of whole human blood was centrifuged at 1000 g for 15 min, supernatant (plasma) removed, and cells resuspended in 80 ml PBS. 20 ml resuspended blood was then layered onto 25 ml Ficoll-Paque Plus (GE Healthcare, Uppsala Sweden), and centrifuged at 400 g for 30 min. The PBMC layer at the interface was collected, washed two times with 20 ml PBS, and resuspended in 20 ml RPMI/10% FBS.
(§3) Day 5-Stimulation of PBMC: PBMCs were grown in 50 ml of stimulation medium (RPMI, 15% FBS, 5 units/ml of IL-2, and 6 ug/ml of PHA) for 5 days.
(§4) Day 1-Infection of PBMC: PBMCs were counted with a hemacytometer. Stimulation medium was removed by centrifugation at RT, 1,500 rpm/5′ and cells resuspended in growth medium (RPMI, 15% of FBS, 10 units/ml of IL-2). PBMCs were infected with JR-FL or 20678 as follows: for one 96-well plate, 20 millions cells were infected with 1 ml of each virus (use 10 ul of virus and 200,000 cell per well) in a 4.5 ml-volume in a 50-ml conical tube. Cells were incubated for 3 hrs at 37 °C. with frequent shaking. Aliqouts of 50 ul of a 4× solution of the compounds to be tested were added to the 96-well plates. After 3 hr of incubation, infected cells were washed two times with PBS and one time with culture medium by spinning down the cells at 1500 rpm for 5 minutes at room temperature. After the last wash cells were resuspended in 15 ml of growth medium. 150 ul of cell suspension were delivered into each well. Cells were incubated for 7 days at 37 °C.
(§5) Day 5-Medium change: Cells were resuspended by pipetting and 100 ul of medium was removed. 100 ul of fresh medium was added with 1× compound. Cells were incubated for 3 more days at 37° C.
(§6) Day 8-p24 assay: At day 8 the p24 production was measured using the HIV-1 p24 Antigen ELISA (Zeptometrix) according to manufacturer instructions.

HIV-1 virus strain 20678 = assay: Inhibition of infection of primary HIV-1 isolate 20678 in PBMCs (p24 antigen ELISA); settings: for Selectivity Index: GI50 (Diff.CD34+) divided by EC50 (PBMC), values fit AVG GI50 / EC50 of virus 20678; for EC50: Human immunodeficiency virus 1, 192 h, PBMC infected with virus 20678, p24 production at day 8
Excerpt: as §1, §2, §3, §4, §5, §6

[1] = Inhibition of cell growth (GI50) in Diff.CD34+ cells, 7-d; settings: Diff.CD34+ cells
[2] = 7-d, experiment of Aug. 6, 2007, concentration required for 50% inhibition of cell growth, read-out: GI50 (μM) Aug. 6, 2007 7-d
[3] = 7-d, experiment of Aug. 13 2007, concentration required for 50% inhibition of cell growth, read-out: GI50 (μM Aug. 13 2007 7-d)
[4] = average of the two 7-d experiments, read-out: AVG GI50

Structure (SMILES) | EC50 (HIV-1 virus strain JR-FL) | EC50 (HIV-1 virus strain 20678) | GI50 (Diff.CD34+; [2]) | GI50 (Diff.CD34+; [3]) | GI50 (Diff.CD34+; [4]) | Selectivity Index (HIV-1 virus strain 20678) | GI50 at 7 d [1, 2] | GI50 at 7 d [1, 3] | GI50 at 7 d [1, 4]
CCCCCCCCCCCCSCC(COP(=O)(O)OC[C@H]1O[C@@H](n2cc(C)c(=O)[nH]c2=O)C[C@@H]1N=[N+]=[N-])OCCCCCCCCCC (stereo partly drawn) [FOZ ISO 850, Phosphoric Acid (2S,3S,5R)-3-azido-5-(5-methyl-2,4-dioxo-3,4-dihydro-2H-pyrimidin-1-yl)-tetrahydro-furan-2-ylmethyl ester 2-decyloxy-3-dodecylsulfanyl-propyl ester] | 474 nM | 279 nM | 2.2 µM | 4 µM | 3.09 µM | 11.06 | – | – | –
CCCCCCCCCCCCSC[C@@H](COP(=O)(O)OC[C@H]1O[C@@H](n2cc(C)c(=O)[nH]c2=O)C[C@@H]1N=[N+]=[N-])OCCCCCCCCCC [FOZ ISO 851 Na, Phosphoric Acid (2S,3S,5R)-3-azido-5-(5-methyl-2,4-dioxo-3,4-dihydro-2H-pyrimidin-1-yl)-tetrahydro-furan-2-ylmethyl ester (R)-2-decyloxy-3-dodecylsulfanyl-propyl ester] | – | – | 2.2 µM | > 10 µM | 2.2 µM | 4.5 | – | – | –
Cc1cn([C@H]2C[C@H](N=[N+]=[N-])[C@@H](CO)O2)c(=O)[nH]c1=O [AZT, 3′-azido-3′-deoxythymidine, reference compound] | 89.8 nM | 76 nM | – | – | – | 1.8 | 0.07 µM | 0.2 µM | 0.14 µM
CCCCCCCCCCCCSCC(COP(=O)(O)OC[C@H]1O[C@@H](n2cc(C)c(=O)[nH]c2=O)C[C@@H]1N=[N+]=[N-])OCCCCCCCCCC (stereo partly drawn) [FOZ ISO 850 Na, Phosphoric Acid (2S,3S,5R)-3-azido-5-(5-methyl-2,4-dioxo-3,4-dihydro-2H-pyrimidin-1-yl)-tetrahydro-furan-2-ylmethyl ester 2-decyloxy-3-dodecylsulfanyl-propyl ester] | – | – | – | > 10 µM | – | 14.3 | 4 µM | – | 4 µM

Continued, in another order:

EC50 (HIV-1 virus strain JR-FL) | EC50 (HIV-1 virus strain 20678) | Structure (SMILES) | GI50 (Diff.CD34+; [2]) | GI50 (Diff.CD34+; [3]) | GI50 (Diff.CD34+; [4]) | Selectivity Index (HIV-1 virus strain 20678) | GI50 at 7 d [1, 2] | GI50 at 7 d [1, 3] | GI50 at 7 d [1, 4]
1140 nM | 1410 nM | CCCCCCCCCCCCSC[C@H](COP(=O)(O)OC[C@H]1O[C@@H](n2cc(C)c(=O)[nH]c2=O)C[C@@H]1N=[N+]=[N-])OCCCCCCCCCC (mixture of isomers) [FOZ MIX Na, Phosphoric acid (2S,3S,5R)-3-azido-5-(5-methyl-2,4-dioxo-3,4-dihydro-2H-pyrimidin-1-yl)-tetrahydro-furan-2-ylmethyl ester (S)-2-decyloxy-3-dodecylsulfanyl-propyl ester sodium salt] | – | – | – | – | 1.5 µM | 2.2 µM | 1.83 µM
504 nM | 294 nM | CCCCCCCCCCCCSC[C@@H](COP(=O)(O)OC[C@H]1O[C@@H](n2cc(C)c(=O)[nH]c2=O)C[C@@H]1N=[N+]=[N-])OCCCCCCCCCC [FOZ ISO 851, Phosphoric Acid (2S,3S,5R)-3-azido-5-(5-methyl-2,4-dioxo-3,4-dihydro-2H-pyrimidin-1-yl)-tetrahydro-furan-2-ylmethyl ester (R)-2-decyloxy-3-dodecylsulfanyl-propyl ester] | 0.85 µM | 1.2 µM | 1.03 µM | 3.5 | – | – | –
